Data published in BindingDB's records for PubMed 8496821 (Fujisawa Pharmaceutical, 1993).

Columns and labels:
[1] = target: 5-hydroxytryptamine receptor 2A (Rattus norvegicus, UniProt P14842)
[2] = target: D(2) dopamine receptor (Rattus norvegicus, UniProt P61169)
Sequence of D(2) dopamine receptor (P61169 whole entry): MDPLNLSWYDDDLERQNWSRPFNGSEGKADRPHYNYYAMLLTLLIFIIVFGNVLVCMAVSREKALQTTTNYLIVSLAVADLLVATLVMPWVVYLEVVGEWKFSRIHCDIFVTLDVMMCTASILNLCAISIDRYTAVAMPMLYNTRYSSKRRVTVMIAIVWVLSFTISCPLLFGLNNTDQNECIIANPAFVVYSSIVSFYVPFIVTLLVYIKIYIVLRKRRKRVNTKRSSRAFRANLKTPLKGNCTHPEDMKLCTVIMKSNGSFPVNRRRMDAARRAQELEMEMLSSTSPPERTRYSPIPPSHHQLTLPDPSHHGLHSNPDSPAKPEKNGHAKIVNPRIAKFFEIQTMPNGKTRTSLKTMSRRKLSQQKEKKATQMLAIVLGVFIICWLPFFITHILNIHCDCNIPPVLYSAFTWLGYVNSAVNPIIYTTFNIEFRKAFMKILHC

Sequence of 5-hydroxytryptamine receptor 2A (P14842 whole entry): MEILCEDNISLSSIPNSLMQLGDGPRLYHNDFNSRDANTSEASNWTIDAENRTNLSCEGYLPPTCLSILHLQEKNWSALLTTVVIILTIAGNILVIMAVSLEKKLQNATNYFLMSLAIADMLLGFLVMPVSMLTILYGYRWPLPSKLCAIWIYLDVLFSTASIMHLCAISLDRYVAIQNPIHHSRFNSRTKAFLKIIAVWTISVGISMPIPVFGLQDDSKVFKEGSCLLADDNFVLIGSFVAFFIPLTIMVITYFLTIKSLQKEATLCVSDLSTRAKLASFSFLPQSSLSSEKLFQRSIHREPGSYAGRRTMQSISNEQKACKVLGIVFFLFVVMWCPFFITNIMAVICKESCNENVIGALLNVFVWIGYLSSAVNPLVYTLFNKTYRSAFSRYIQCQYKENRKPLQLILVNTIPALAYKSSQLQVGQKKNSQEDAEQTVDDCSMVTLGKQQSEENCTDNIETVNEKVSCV

- Ki [1]: 0.01 nM
- Ki [2]: 0.01 nM
SMILES: Cc1[nH]cnc1CC1CCc2c(C)c3ccccc3n2C1=O (configuration not stated) [CAS_125368]
